Measurements published in the NIST ThermoML archive (doi:10.1016/j.fluid.2005.08.006).
Numbers after ± are expanded uncertainties.

assay: refractive index (Na D-line) (dimensionless); settings: 293.15 K; 101.33 kPa; Liquid; Standard Abbe refractometry

Row | refractive index | SMILES
1 | 1.381 ± 0.0007 | CCC(=O)O [propanoic acid]
2 | 1.3749 ± 0.0007 | CCCCCC [hexane]
3 | 1.4265 ± 0.0007 | C1CCCCC1 [cyclohexane]
4 | 1.3612 ± 0.0007 | CCO [ethanol]
5 | 1.3933 ± 0.0007 | CC(C)C(=O)O [2-methylpropanoic acid]
6 | 1.4105 ± 0.0007 | CCCCCCCCCC [decane]
7 | 1.4087 ± 0.0007 | CCCCC(=O)O [pentanoic acid]
